The values that follow come from patent US4005073A, “6-Acyl derivatives of aminopenicillanic acid” (priority 1974, dated 1977).

Like-named read-outs stand apart in the source and are kept apart here.

Data set [1] has as its system Proteus Vulganis. Kind of data set: CD50 in the mouse, Proteus Vulganis. The class given is in vivo. The source says:
(§1) |CD50 (mg/kg) in the mouse

A short description of data set [2]: Acute Toxicity. The note with it: mouse, in vivo.
Text: as §1

Data set [3] has as its system S. aureous (penicillin resistant). Kind of data set: CD50 in the mouse, S. aureous (penicillin resistant). The class given is in vivo.
Text: as §1

The subject of data set [4] is Escherichia coli. Kind of data set: CD50 in the mouse, Escherichia coli. The class given is in vivo.
Text: as §1

The test system of data set [5] is Pseudomonas Aeriginmos. Kind of data set: CD50 in the mouse, Pseudomonas Aeriginmos. It counts as in vivo.
Text: as §1

Where [6] appears, read: Pseudomonas, po, read-out: CD50.

In general, LD50 refers to the dose expected to kill half of the subjects tested. Read a low LD50 as a more toxic substance. In the case of `CC(C)CC(C(=O)O)C(=O)N[C@@H]1C(=O)N2[C@@H]1SC(C)(C)[C@@H]2C(=O)O` (some centres unmarked) [(1-Carboxy-3-methyl-butyl)-penicillin di-sodium], the ED50 in data set [1] (sc, S.C.) is 6.2 mg/kg; in data set [3] (sc, S.C.), 34 mg/kg; in data set [4] (sc, S.C.), 2.4 mg/kg; in data set [5] (Pseudomonas, sc, read-out: CD50), 124 mg/kg. The compound further had an LD50 in data set [2] (iv) of 2000 to 4000 mg/kg.

For `CCOC(=O)C(CC(C)C)C(=O)N[C@@H]1C(=O)N2[C@@H]1SC(C)(C)[C@@H]2C(=O)O` (some centres unmarked) [(1-[ethoxycarbonyl-3-methylbutyl)]-penicillin sodium], the figures for the LD50 in data set [2] and in data set [2] (iv) were 5000 mg/kg and 2000 to 4000 mg/kg, respectively. The ED50 in data set [3] (po, P.O.) was roughly 100 mg/kg; in data set [3] (sc, S.C.), 22 mg/kg; in data set [4] (po, P.O.) it was 14 mg/kg; in data set [4] (sc, S.C.) it was 2.1 mg/kg; in data set [5] (setting [6]), roughly 100 mg/kg; in data set [5] (sc, Pseudomonas Aeriginmos, mouse, S.C., read-out: CD50 (the source's name)) it was roughly 80 mg/kg.

Regarding `CC(C)CC(C(=O)N[C@@H]1C(=O)N2[C@@H]1SC(C)(C)[C@@H]2C(=O)O)C(=O)OCc1ccccc1` (some centres unmarked) [(1-benzyloxycarbonyl-3-methylbutyl)-penicillin sodium], the ED50 in data set [1] (po, P.O.) stood at 8.9 mg/kg; in data set [4] (po, P.O.), 9 mg/kg; in data set [5] (setting [6]), 142 mg/kg. The compound further registered an LD50 in data set [2] (po) of 2500 to 5000 mg/kg.
